molecular target: T1, human CCR6 (Homo sapiens, UniProt P51684); experiment: Migration assay (chemotaxis, ChemoTX); format: cell-based; conditions: hCCR6-transfected Ba/F3 cells in human serum, migration to recombinant human CCL20 10 nM, 37° C. 45 minutes; read-out: Potency (IC50 value in the migration assay)
T1 construct: expressed in transfected cells; host or cells: Ba/F3 cells (mouse pro-B line)
T1 sequence (P51684 1-374): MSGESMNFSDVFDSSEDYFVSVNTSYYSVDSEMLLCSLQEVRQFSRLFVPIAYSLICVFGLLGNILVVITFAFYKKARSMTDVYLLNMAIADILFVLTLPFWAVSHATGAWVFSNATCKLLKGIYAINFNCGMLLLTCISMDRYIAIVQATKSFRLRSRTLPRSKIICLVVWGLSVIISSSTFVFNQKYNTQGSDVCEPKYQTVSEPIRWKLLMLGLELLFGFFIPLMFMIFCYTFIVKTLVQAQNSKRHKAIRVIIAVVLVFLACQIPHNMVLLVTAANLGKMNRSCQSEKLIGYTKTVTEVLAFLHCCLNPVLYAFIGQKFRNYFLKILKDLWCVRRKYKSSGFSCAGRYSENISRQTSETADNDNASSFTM
Procedure, shortened: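 Ba/F3 cells transfected with human CCR6 and butyrate-primed for 24 h were suspended at 4 million/ml in human serum with compound, serially diluted from a 1 μM final top concentration. Cells migrated through a 5-μm polycarbonate membrane toward 10 nM human CCL20 for 45 min at 37 °C. Migrated cells were quantified by CyQUANT fluorescence.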

| IC50 [nM] | Compound |
| --- | --- |
| < 1 | Cc1cncc(C)c1-c1ccc(S(=O)(=O)N2CC[C@@H](Nc3ccc(C(F)(F)F)cn3)[C@@H](O)C2)cc1 [Compound 185] |
| < 1 | CN(C)C(=O)N1Cc2ccc(-c3ccc(S(=O)(=O)N4CC[C@@H](Nc5ccc(C(F)(F)F)cn5)[C@@H](O)C4)cc3)cc2C1 [Compound 186] |
| < 1 | CNC(=O)N1Cc2ccc(-c3ccc(S(=O)(=O)N4CC[C@@H](Nc5ccc(C(F)(F)F)cn5)[C@@H](O)C4)cc3)cc2C1 [Compound 187] |
| < 1 | CNC(=O)N1Cc2cc(-c3ccc(S(=O)(=O)N4CC[C@@H](Nc5ccc(C(F)(F)F)cn5)[C@@H](O)C4)cc3)cc(C)c2C1 [Compound 188] |
| < 1 | O=S(=O)(c1ccc(-c2cnc3c(O)nccc3c2)cc1)N1CC[C@@H](Nc2ccc(C(F)(F)F)cn2)[C@@H](O)C1 [Compound 190] |
| < 1 | O=S(=O)(c1ccc(-c2cnc3[nH]nc(-c4ncc[nH]4)c3c2)cc1)N1CC[C@@H](Nc2ccc(C(F)(F)F)cn2)[C@@H](O)C1 [Compound 191] |
| < 1 | Cc1cc(C(F)(F)F)cnc1N[C@@H]1CCN(S(=O)(=O)c2ccc(-c3cnc4[nH]cc(C#N)c4c3)cc2)C[C@@H]1O [Compound 192] |
| < 1 | N#Cc1n[nH]c2ncc(-c3ccc(S(=O)(=O)N4CC[C@@H](Nc5ccc(C(F)(F)F)cn5)[C@@H](O)C4)cc3)cc12 [Compound 193] |
| 10 to 1000 | O=S(=O)(c1ccc(-c2nnc(N3CCOCC3)o2)cc1)N1CC[C@@H](Nc2ccc(C(F)(F)F)cn2)[C@@H](O)C1 [Compound 194] |
| < 1 | CN(C)c1cc(-c2ccc(S(=O)(=O)N3CC[C@@H](Nc4ccc(C(F)(F)F)cn4)[C@@H](O)C3)cc2)cc(C(N)=O)n1 [Compound 196] |
| 1 to 10 | NC(=O)c1ncc(-c2ccc(S(=O)(=O)N3CC[C@@H](Nc4ccc(C(F)(F)F)cn4)[C@@H](O)C3)cc2)[nH]1 [Compound 197] |
| < 1 | NC(=O)c1cc(-c2ccc(S(=O)(=O)N3CC[C@@H](Nc4ccc(C(F)(F)F)cn4)[C@@H](O)C3)cc2)cnn1 [Compound 198] |
| 1 to 10 | N#Cc1cc(-c2ccc(S(=O)(=O)N3CC[C@@H](Nc4ccc(C(F)(F)F)cn4)[C@@H](O)C3)cc2)cnn1 [Compound 199] |
| < 1 | O=S(=O)(c1ccc(-c2cnnc(N3CCOCC3)c2)cc1)N1CC[C@@H](Nc2ccc(C(F)(F)F)cn2)[C@@H](O)C1 [Compound 200] |
| < 1 | O=S(=O)(c1ccc(-c2cnnc(Cl)c2)cc1)N1CC[C@@H](Nc2ccc(C(F)(F)F)cn2)[C@@H](O)C1 [Compound 201] |
| < 1 | NC(=O)c1cc(-c2ccc(S(=O)(=O)N3CC[C@@H](Nc4ccc(C(F)(F)F)cn4)[C@@H](O)C3)cc2)cc(N)n1 [Compound 202] |
| < 1 | NC(=O)c1cc(-c2ccc(S(=O)(=O)N3CC[C@@H](Nc4ccc(C(F)(F)F)cn4)[C@@H](O)C3)cc2)cc(O)n1 [Compound 203] |
| < 1 | Cc1cnc(C(N)=O)c(C)c1-c1ccc(S(=O)(=O)N2CC[C@@H](Nc3ccc(C(F)(F)F)cn3)[C@@H](O)C2)cc1 [Compound 204] |
| 1 to 10 | Cc1cnc(CO)c(C)c1-c1ccc(S(=O)(=O)N2CC[C@@H](Nc3ccc(C(F)(F)F)cn3)[C@@H](O)C2)cc1 [Compound 205] |
| < 1 | Cc1cc(-c2ccc(S(=O)(=O)N3CC[C@@H](Nc4ccc(C(F)(F)F)cn4)[C@@H](O)C3)cc2)cc(C(N)=O)n1 [Compound 206] |

| IC50 [nM] | Compound |
| --- | --- |
| 1 to 10 | NC(=O)Cc1cc(-c2ccc(S(=O)(=O)N3CC[C@@H](Nc4ccc(C(F)(F)F)cn4)[C@@H](O)C3)cc2)ccn1 [Compound 207] |
| 10 to 1000 | O=C(O)c1cc(-c2ccc(S(=O)(=O)N3CC[C@@H](Nc4ccc(C(F)(F)F)cn4)[C@@H](O)C3)cc2)ccn1 [Compound 208] |
| < 1 | O=S(=O)(c1ccc(-c2cnc3[nH]ccc3c2Cl)cc1)N1CC[C@@H](Nc2ccc(C(F)(F)F)cn2)[C@@H](O)C1 [Compound 209] |
| < 1 | O=C1Nc2ncc(-c3ccc(S(=O)(=O)N4CC[C@@H](Nc5ccc(C(F)(F)F)cn5)[C@@H](O)C4)cc3)cc2C12CC2 [Compound 212] |
| < 1 | Cc1nnc(-c2cc(-c3ccc(S(=O)(=O)N4CC[C@@H](Nc5ccc(C(F)(F)F)cn5)[C@@H](O)C4)cc3)c(C)cn2)o1 [Compound 213] |
| < 1 | COc1cc(-c2ccc(S(=O)(=O)N3CC[C@@H](Nc4ccc(C(F)(F)F)cn4)[C@@H](O)C3)cc2)cc(-c2nnc(C)o2)n1 [Compound 214] |
| 1 to 10 | Cc1c[nH]c(-c2cc(-c3ccc(S(=O)(=O)N4CC[C@@H](Nc5ccc(C(F)(F)F)cn5)[C@@H](O)C4)cc3)ccn2)n1 [Compound 215] |
| < 1 | Nc1n[nH]c2ccc(-c3ccc(S(=O)(=O)N4CC[C@@H](Nc5ccc(C(F)(F)F)cn5)[C@@H](O)C4)cc3)cc12 [Example 1, (3S,4R)-1-((4-(3-amino-1H-indazol-5-yl)phenyl)sulfonyl)-4-((5-(trifluoromethyl)pyridin-2-yl)amino)piperidin-3-ol] |
| < 1 | O=C1CCc2cc(-c3ccc(S(=O)(=O)N4CC[C@@H](Nc5ccc(C(F)(F)F)cn5)[C@@H](O)C4)cc3)ccc2N1 [Example 2, 6-(4-(((3S,4R)-3-hydroxy-4-((5-(trifluoromethyl)pyridin-2-yl)amino)piperidin-1-yl)sulfonyl)phenyl)-3,4-dihydroquinolin-2(1H)-one] |
| < 1 | O=C1NCCc2ccc(-c3ccc(S(=O)(=O)N4CC[C@@H](Nc5ccc(C(F)(F)F)cn5)[C@@H](O)C4)cc3)cc21 [Example 3, 7-(4-(((3S,4R)-3-hydroxy-4-((5-(trifluoromethyl)pyridin-2-yl)amino)piperidin-1-yl)sulfonyl)phenyl)-3,4-dihydroisoquinolin-1(2H)-one] |
| < 1 | NC(=O)N1Cc2ccc(-c3ccc(S(=O)(=O)N4CC[C@@H](Nc5ccc(C(F)(F)F)cn5)[C@@H](O)C4)cc3)cc2C1 [Example 4, 5-(4-(((3S,4R)-3-hydroxy-4-((5-(trifluoromethyl)pyridin-2-yl)amino)piperidin-1-yl)sulfonyl)phenyl)isoindoline-2-carboxamide] |
| < 1 | O=c1[nH]ncc2cc(-c3ccc(S(=O)(=O)N4CC[C@@H](Nc5ccc(C(F)(F)F)cn5)[C@@H](O)C4)cc3)ccc12 [Example 5, 6-(4-(((3S,4R)-3-hydroxy-4-((5-(trifluoromethyl)pyridin-2-yl)amino)piperidin-1-yl)sulfonyl)phenyl)phthalazin-1(2H)-one] |
| < 1 | Cc1c(-c2ccc(S(=O)(=O)N3CC[C@@H](Nc4ccc(C(F)(F)F)cn4)[C@@H](O)C3)cc2)ccnc1C(N)=O [Example 6, 4-(4-(((3S,4R)-3-Hydroxy-4-((5-(trifluoromethyl)pyridin-2-yl)amino)piperidin-1-yl)sulfonyl)phenyl)-3-methylpicolinamide] |
| < 1 | NC(=O)c1cccc(-c2ccc(S(=O)(=O)N3CC[C@@H](Nc4ccc(C(F)(F)F)cn4)[C@@H](O)C3)cc2)n1 [Example 7, 6-(4-(((3S,4R)-3-Hydroxy-4-((5-(trifluoromethyl)pyridin-2-yl)amino)piperidin-1-yl)sulfonyl)phenyl)picolinamide] |
| < 1 | O=C1Cc2ccc(-c3ccc(S(=O)(=O)N4CC[C@@H](Nc5ccc(C(F)(F)F)cn5)[C@@H](O)C4)cc3)cc2CN1 [Example 8, 7-(4-(((3S,4R)-3-hydroxy-4-((5-(trifluoromethyl)pyridin-2-yl)amino)piperidin-1-yl)sulfonyl)phenyl)-1,4-dihydroisoquinolin-3(2H)-one] |
| < 1 | O=C1Cc2ccc(-c3ccc(S(=O)(=O)N4CC[C@@H](Nc5ccc(C(F)(F)F)cn5)[C@@H](O)C4)cc3)cc2N1 [Example 9, 6-(4-(((3S,4R)-3-hydroxy-4-((5-(trifluoromethyl)pyridin-2-yl)amino)piperidin-1-yl)sulfonyl)phenyl)indolin-2-one] |
| 1 to 10 | O=S(=O)(c1ccc(-c2ccnc(CO)c2)cc1)N1CC[C@@H](Nc2ccc(C(F)(F)F)cn2)[C@@H](O)C1 [Example 10, (3S,4R)-1-((4-(2-(hydroxymethyl)pyridin-4-yl)phenyl)sulfonyl)-4-((5-(trifluoromethyl)pyridin-2-yl)amino)piperidin-3-ol] |
| < 1 | Cc1nnc(-c2cc(-c3ccc(S(=O)(=O)N4CC[C@@H](Nc5ccc(C(F)(F)F)cn5)[C@@H](O)C4)cc3)ccn2)o1 [Example 11, (3S,4R)-1-((4-(2-(5-methyl-1,3,4-oxadiazol-2-yl)pyridin-4-yl)phenyl)sulfonyl)-4-((5-(trifluoromethyl)pyridin-2-yl)amino)piperidin-3-ol] |
| < 1 | O=C1NCc2cc(-c3ccc(S(=O)(=O)N4CC[C@@H](Nc5ccc(C(F)(F)F)cn5)[C@@H](O)C4)cc3)ccc21 [Example 12, 5-(4-(((3S,4R)-3-hydroxy-4-((5-(trifluoromethyl)pyridin-2-yl)amino)piperidin-1-yl)sulfonyl)phenyl)isoindolin-1-one] |
| < 1 | Nc1nnc2ccc(-c3ccc(S(=O)(=O)N4CC[C@@H](Nc5ccc(C(F)(F)F)cn5)[C@@H](O)C4)cc3)cn12 [Example 13, (3S,4R)-1-((4-(3-amino-[1,2,4]triazolo[4,3-a]pyridin-6-yl)phenyl)sulfonyl)-4-((5-(trifluoromethyl)pyridin-2-yl)amino)piperidin-3-ol] |
